# Laboratory results taken from BindingDB's records for doi:10.1016/j.bmcl.2006.03.041 (Abbott Laboratories, 2006).
# Molecular target: T1, Protein kinase C zeta type (Homo sapiens, UniProt Q05513)
# T1 sequence (Q05513 whole entry): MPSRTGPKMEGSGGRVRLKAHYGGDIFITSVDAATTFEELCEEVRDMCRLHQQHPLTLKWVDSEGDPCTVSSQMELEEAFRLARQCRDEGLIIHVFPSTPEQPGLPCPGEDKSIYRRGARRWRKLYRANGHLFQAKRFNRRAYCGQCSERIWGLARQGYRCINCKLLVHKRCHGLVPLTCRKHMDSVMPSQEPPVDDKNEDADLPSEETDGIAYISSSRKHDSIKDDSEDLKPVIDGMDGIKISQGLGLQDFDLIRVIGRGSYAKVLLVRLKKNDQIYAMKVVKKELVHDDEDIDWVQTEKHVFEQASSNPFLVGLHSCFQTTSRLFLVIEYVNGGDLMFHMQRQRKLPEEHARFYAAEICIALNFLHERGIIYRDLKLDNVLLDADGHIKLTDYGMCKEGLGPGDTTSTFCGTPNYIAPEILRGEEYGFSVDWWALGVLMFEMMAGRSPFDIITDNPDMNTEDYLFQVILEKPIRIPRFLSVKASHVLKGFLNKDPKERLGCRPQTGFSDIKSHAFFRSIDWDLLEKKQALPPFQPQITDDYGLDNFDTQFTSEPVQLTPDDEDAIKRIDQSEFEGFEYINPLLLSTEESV
# Test: PKA/PKC Kinase Assay
# Settings: pH 7.5; 22 °C
# Experimental: The kinase assay uses purified recombinant enzyme and a biotinylated peptide as substrate. The biotinylated peptides were immobilized on streptavidin-coated FLASH plates. After reaction, the 33P-phosphopeptide captured on the FLASH plates was measured with a TopCount Packard Instruments gamma counter (Packard Instruments, Boston, MA). IC50s were calculated using the sigmoidal curve fit with the Assay Explorer software (MDL, Los Angeles, CA).
row,SMILES,IC50
1,N[C@H](COc1cnc(Cl)c(-c2ccc3cnccc3c2)c1)Cc1c[nH]c2ccccc12 [6-{5-[(2S)-2-amino-3-(1H-indol-3-yl)propoxy]-2-chloropyridin-3-yl}isoquinoline],> 5000 nM

# Molecular target: T2, RAC-alpha serine/threonine-protein kinase [139-480,S378A,S381A,T450D,S473D] (Homo sapiens, UniProt P31749, S378A/S381A/S473D/T450D)
# T2 construct: 139-480
# Test: Akt Kinase Assay
# Settings: not given
# Experimental: The kinase assay uses His-Akt1 and a biotinylated peptide as substrate. The biotinylated peptides were immobilized on streptavidin-coated FLASH plates. After reaction, the 33P-phosphopeptide captured on the FLASH plates was measured with a TopCount Packard Instruments […] (Packard Instruments, Boston, MA).
# T2 sequence (P31749 139-480 S378A/S381A/T450D/S473D): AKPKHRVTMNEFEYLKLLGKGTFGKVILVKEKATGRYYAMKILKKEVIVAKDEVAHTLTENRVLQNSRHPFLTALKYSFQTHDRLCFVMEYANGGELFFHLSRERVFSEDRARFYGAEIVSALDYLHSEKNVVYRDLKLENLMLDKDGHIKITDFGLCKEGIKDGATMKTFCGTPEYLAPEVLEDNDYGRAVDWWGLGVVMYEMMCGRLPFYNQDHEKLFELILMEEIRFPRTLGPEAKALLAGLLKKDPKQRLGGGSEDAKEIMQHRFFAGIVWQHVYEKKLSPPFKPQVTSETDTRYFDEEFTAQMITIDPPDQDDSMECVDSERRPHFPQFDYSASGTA
row,SMILES,IC50
1,N#Cc1cc2cc(-c3cncc(OC[C@@H](N)Cc4c[nH]c5ccccc45)c3)ccc2cn1 [6-{5-[(2S)-2-amino-3-(1H-indol-3-yl)propoxy]pyridin-3-yl}isoquinoline-3-carbonitrile],640 nM
2,N[C@H](COc1cncc(-c2ccc3cnc(C#Cc4ccccc4)cc3c2)c1)Cc1c[nH]c2ccccc12 [6-{5-[(2S)-2-amino-3-(1H-indol-3-yl)propoxy]pyridin-3-yl}-3-(2-phenylethynyl)isoquinoline],56 nM
3,Nc1cc2cc(-c3cncc(OC[C@@H](N)Cc4c[nH]c5ccccc45)c3)ccc2cn1 [6-{5-[(2S)-2-amino-3-(1H-indol-3-yl)propoxy]pyridin-3-yl}isoquinolin-3-amine],3.4 nM
4,C=Cc1cc2cc(-c3cncc(OC[C@@H](N)Cc4c[nH]c5ccccc45)c3)ccc2cn1 [6-{5-[(2S)-2-amino-3-(1H-indol-3-yl)propoxy]pyridin-3-yl}-3-ethenylisoquinoline],22 nM
5,Nc1c(-c2cncc(OC[C@@H](N)Cc3c[nH]c4ccccc34)c2)ccc2cnccc12 [6-{5-[(2S)-2-amino-3-(1H-indol-3-yl)propoxy]pyridin-3-yl}isoquinolin-5-amine],15 nM
6,N[C@H](COc1cncc(-c2ccc3cnc(-c4ccco4)cc3c2)c1)Cc1c[nH]c2ccccc12 [6-{5-[(2S)-2-amino-3-(1H-indol-3-yl)propoxy]pyridin-3-yl}-3-(furan-2-yl)isoquinoline],57 nM
7,N[C@H](COc1cncc(-c2ccc3cnc(-c4ccccc4)cc3c2)c1)Cc1c[nH]c2ccccc12 [6-{5-[(2S)-2-amino-3-(1H-indol-3-yl)propoxy]pyridin-3-yl}-3-phenylisoquinoline],305 nM
8,N[C@H](COc1cncc(-c2ccc3cnc(-c4ccncc4)cc3c2)c1)Cc1c[nH]c2ccccc12 [6-{5-[(2S)-2-amino-3-(1H-indol-3-yl)propoxy]pyridin-3-yl}-3-(pyridin-4-yl)isoquinoline],122 nM
9,N[C@H](COc1cncc(-c2ccc3cnc(Cl)cc3c2)c1)Cc1c[nH]c2ccccc12 [6-{5-[(2S)-2-amino-3-(1H-indol-3-yl)propoxy]pyridin-3-yl}-3-chloroisoquinoline],407 nM
10,Cc1cc(-c2cncc(OC[C@@H](N)Cc3c[nH]c4ccccc34)c2)cc2ccncc12 [6-{5-[(2S)-2-amino-3-(1H-indol-3-yl)propoxy]pyridin-3-yl}-8-methylisoquinoline],995 nM
11,N[C@H](COc1cncc(-c2ccc3cnc(F)cc3c2)c1)Cc1c[nH]c2ccccc12 [6-{5-[(2S)-2-amino-3-(1H-indol-3-yl)propoxy]pyridin-3-yl}-3-fluoroisoquinoline],3.5 nM
12,CCc1cc2cc(-c3cncc(OC[C@@H](N)Cc4c[nH]c5ccccc45)c3)ccc2cn1 [6-{5-[(2S)-2-amino-3-(1H-indol-3-yl)propoxy]pyridin-3-yl}-3-ethylisoquinoline],144 nM
13,CC#Cc1cc2cc(-c3cncc(OC[C@@H](N)Cc4c[nH]c5ccccc45)c3)ccc2cn1 [6-{5-[(2S)-2-amino-3-(1H-indol-3-yl)propoxy]pyridin-3-yl}-3-(prop-1-yn-1-yl)isoquinoline],180 nM

# Same assay, conditions: pH 7.5; 22 °C
row,SMILES,IC50
1,N#C/C=C/c1c(OC[C@@H](N)Cc2c[nH]c3ccccc23)cncc1-c1ccc2cnccc2c1 [(2E)-3-{3-[(2S)-2-amino-3-(1H-indol-3-yl)propoxy]-5-(isoquinolin-6-yl)pyridin-4-yl}prop-2-enenitrile],697 nM
2,N[C@H](COc1cncc(-c2ccc3c(F)nccc3c2)c1)Cc1c[nH]c2ccccc12 [6-{5-[(2S)-2-amino-3-(1H-indol-3-yl)propoxy]pyridin-3-yl}-1-fluoroisoquinoline],227 nM
3,Cc1c(OC[C@@H](N)Cc2c[nH]c3ccccc23)cncc1-c1ccc2cnccc2c1 [6-{5-[(2S)-2-amino-3-(1H-indol-3-yl)propoxy]-4-methylpyridin-3-yl}isoquinoline],84 nM
4,COc1nccc2cc(-c3cncc(OC[C@@H](N)Cc4c[nH]c5ccccc45)c3)ccc12 [6-{5-[(2S)-2-amino-3-(1H-indol-3-yl)propoxy]pyridin-3-yl}-1-methoxyisoquinoline],39500 nM
5,N#Cc1ncc(OC[C@@H](N)Cc2c[nH]c3ccccc23)cc1-c1ccc2cnccc2c1 [5-[(2S)-2-amino-3-(1H-indol-3-yl)propoxy]-3-(isoquinolin-6-yl)pyridine-2-carbonitrile],4.6 nM
6,C#Cc1ncc(OC[C@@H](N)Cc2c[nH]c3ccccc23)cc1-c1ccc2cnccc2c1 [6-{5-[(2S)-2-amino-3-(1H-indol-3-yl)propoxy]-2-ethynylpyridin-3-yl}isoquinoline],0.8 nM
7,N[C@H](COc1cnc(-c2ccco2)c(-c2ccc3cnccc3c2)c1)Cc1c[nH]c2ccccc12 [6-{5-[(2S)-2-amino-3-(1H-indol-3-yl)propoxy]-2-(furan-2-yl)pyridin-3-yl}isoquinoline],1.5 nM
8,N[C@H](COc1cncc(-c2ccc3c(=O)[nH]ccc3c2)c1)Cc1c[nH]c2ccccc12 [6-{5-[(2S)-2-amino-3-(1H-indol-3-yl)propoxy]pyridin-3-yl}isoquinolin-1-ol],1240 nM
9,Nc1nccc2cc(-c3cncc(OC[C@@H](N)Cc4c[nH]c5ccccc45)c3)ccc12 [6-{5-[(2S)-2-amino-3-(1H-indol-3-yl)propoxy]pyridin-3-yl}isoquinolin-1-amine],160 nM
10,N[C@H](COc1cnc(Cl)c(-c2ccc3cnccc3c2)c1)Cc1c[nH]c2ccccc12 [6-{5-[(2S)-2-amino-3-(1H-indol-3-yl)propoxy]-2-chloropyridin-3-yl}isoquinoline],1.8 nM
11,N[C@H](COc1cnc(C#Cc2ccccc2)c(-c2ccc3cnccc3c2)c1)Cc1c[nH]c2ccccc12 [6-{5-[(2S)-2-amino-3-(1H-indol-3-yl)propoxy]-2-(2-phenylethynyl)pyridin-3-yl}isoquinoline],1240 nM
12,N[C@H](COc1cncc(-c2ccc3cnccc3c2)c1)Cc1c[nH]c2ccccc12 [13a (S-)],2 nM
13,N[C@H](COc1cncc(-c2ccc3c(Cl)nccc3c2)c1)Cc1c[nH]c2ccccc12 [6-{5-[(2S)-2-amino-3-(1H-indol-3-yl)propoxy]pyridin-3-yl}-1-chloroisoquinoline],778 nM
14,C=Cc1ncc(OC[C@@H](N)Cc2c[nH]c3ccccc23)cc1-c1ccc2cnccc2c1 [6-{5-[(2S)-2-amino-3-(1H-indol-3-yl)propoxy]-2-ethenylpyridin-3-yl}isoquinoline],2 nM
15,N[C@H](COc1cc(-c2ccc3cnccc3c2)cnc1Cl)Cc1c[nH]c2ccccc12 [6-{5-[(2S)-2-amino-3-(1H-indol-3-yl)propoxy]-6-chloropyridin-3-yl}isoquinoline],12 nM
